Laboratory results taken from paper PMC8780078, “Long‐acting and extended‐release implant and nanoformulations with a synergistic antiretroviral two‐drug combination controls HIV‐1 infection in a humanized mouse model” (Bioengineering & Translational Medicine, 2021).

Columns and labels:
[1] = Pharmacokinetics of drug release from subdermal implants in Hu‐PBL mice (serum, HPLC); type: in vivo; conditions: end of study sera (Day 49 nanoformulations, Day 56 implants) vs EC90 in HIV cell culture
Protocol: Hu‐mice were anesthetized by i.p. injection of ketamine (80 mg/kg) and xylazine (12 mg/kg) in PBS (10 ml/kg) based on individual mouse body weight. After anesthetizing, approximately 1–2 cm square of the dorsal skin was shaved using an electric hair clipper, the area was cleaned with ethanol and disinfected with Betadine. Using a sterile disposable surgical blade, an incision of 4–5 mm was made through the skin. Gently, 2 cm × 3 cm subcutaneous pockets were created with forceps and implants loaded with Compound I and EFdA were co‐inserted at the same site. The opening was sutured using absorbable sutures followed by subcutaneous administration of 0.05 mg/kg buprenorphine. The animals were kept warm using the temperature‐controlled heating pads until they regained consciousness. Toxicity was evaluated by clinical observations, cage‐side observations (twice daily), and body weight (at least weekly). […]
The data were plotted as a concentration‐time curve using PRISM 9.0 (GraphPad Software Inc., La Jolla, CA). […] was calculated using Graph pad prism where EC50 of each compound was used along with Hill slope of 1. The predicted area under the curve (AUC) for drug concentration in blood serum against time (AUC predicted) was calculated based on the linear trapezoid method.[29] AUC was also calculated for PVLs and CD4+ T‐cells in infection experiments. […]

[2] = system: HERG ion channel; parameters: method as in PMID 28167742; conditions: cited from earlier work
[3] = system: HIV‐1; conditions: cited from earlier work
[4] = system: HIV‐1; assay: Antiviral potency in cellular assays / HIV cell culture; type: cell-based; conditions: Human immunodeficiency virus 1, in Discussion

SMILES | serum concentration fold above EC90 [1] | inhibition of the HERG ion channel [2] | synergy of Compound I with EFdA ([3]; cell culture) | activity against wild‐type HIV‐1 strains and drug resistant variants ([3]; wild‐type, Y181C and K103N) | EC90 [4] [ng/mL] | EC90 ([4]; from EC50 with Hill slope of 1) [nM]
N#Cc1ccc2c(Oc3ccc(F)cc3OCCn3ccc(=O)[nH]c3=O)cc(F)cc2c1 [Compound I] | approximately 100 fold | no inhibition | potent synergy | active in the nanomolar range | 10 | 25.2
C#C[C@]1(CO)O[C@@H](n2cnc3c(N)nc(F)nc32)C[C@@H]1O [EFdA, 4′‐ethynyl‐2‐fluoro‐2′‐deoxyadenosine, reference compound] | ~1100 fold |  |  |  | 5 | 17.1
